# Test results published in patent US10829487B2, “Benzylamino substituted pyridopyrimidinones and derivatives as SOS1 inhibitors” (Boehringer Ingelheim International GmbH, priority 2017, dated 2020).
# Target: protein-protein interaction between SOS1 and KRAS G12D (Homo sapiens (Human), UniProt Q07889)
# Assay: KRAS::SOS1 AlphaScreen Binding Assay
# Settings: KRAS G12D::SOS1 AlphaScreen; measured without EDTA unless marked with an asterisk
# Source text: KRAS::SOS1 AlphaScreen Binding Assay
# Low IC50 values are indicative of high potency of the SOS1 inhibitor compound in this assay setting:
# Reagents: • GST-tagged SOS1 (564_1049_GST_TEV_ECO) produced in-house • GST-TEV-SOS1 (564-1049) is purchased from Viva Biotech Ltd. • 6×His-Tev-K-RasG12D(1-169)Avi is purchased from Xtal BioStructures, Inc. (Lot # X129-110) • GDP (Sigma Cat No G7127) • AlphaLISA Glutathione Acceptor Beads (PerkinElmer, Cat No AL109) • AlphaScreen Streptavidin Donor Beads (PerkinElmer Cat No 6760002) • Assay plates: Proxiplate-384 PLUS, white (PerkinElmer, Cat No 6008289)
# 10 nM (final assay concentration) KRAS G12D, 10 μM (final assay concentration) GDP and 5 nM (final assay concentration) GST-SOS1 are mixed in assay buffer prior to use and kept at room temperature.
# AlphaLISA Glutathione Acceptor Beads and AlphaScreen Streptavidin Donor Beads are mixed in assay buffer at a concentration of 10 μg/mL (final assay concentration) each prior to use and kept at room temperature.
# Compounds are diluted to a final start concentration of 100 μM and are tested in duplicate. Assay-ready plates (ARPs) are generated using an Access Labcyte Workstation with a Labcyte Echo 550 or 555 accoustic dispenser. For compound a start concentration of 100 μM, 150 nL of compound solution is transferred per well in 11 concentrations in duplicate with serial 1:5 dilutions.
# The assay is run using a fully automated robotic system in a darkened room below 100 Lux. 10 μL of KRAS::SOS1 GDP mix is added into columns 1-24 to the 150 nL of compound solution (final dilution in the assay 1:100, final DMSO concentration 1%).
# After a 30 minute incubation time 5 μL of bead mix is added into columns 1-23. Plates are kept at room temperature in a darkened incubator. After a further 60 minute incubation, the signal is measured using a PerkinElmer Envision HTS Multilabel Reader using the AlphaScreen specifications from PerkinElmer. Each plate contains the following controls: • diluted DMSO+KRAS::SOS1 GDP mix+bead mix • diluted DMSO+KRAS::SOS1 GDP mix
# IC50 values are calculated and analyzed using a 4 parametric logistic model.
# Sequence of protein-protein interaction between SOS1 and KRAS G12D (Q07889 564-1049, stated change not applied): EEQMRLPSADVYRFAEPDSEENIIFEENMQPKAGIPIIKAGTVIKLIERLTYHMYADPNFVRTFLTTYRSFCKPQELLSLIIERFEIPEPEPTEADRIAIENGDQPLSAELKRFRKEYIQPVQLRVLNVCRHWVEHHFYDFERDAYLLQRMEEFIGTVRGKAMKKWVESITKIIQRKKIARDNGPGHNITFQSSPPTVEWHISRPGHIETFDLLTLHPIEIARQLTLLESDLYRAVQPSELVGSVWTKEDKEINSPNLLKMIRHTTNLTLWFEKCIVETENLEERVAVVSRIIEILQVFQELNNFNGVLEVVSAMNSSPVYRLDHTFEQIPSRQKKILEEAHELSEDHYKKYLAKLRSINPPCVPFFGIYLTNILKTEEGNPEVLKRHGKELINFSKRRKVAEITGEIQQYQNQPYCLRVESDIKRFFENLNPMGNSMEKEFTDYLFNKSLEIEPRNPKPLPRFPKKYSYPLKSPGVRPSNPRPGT
row,Structure (SMILES),IC50
1,Cc1c(=O)n(C2(C(F)(F)F)CC2)cc2c(N[C@H](C)c3cccc(C(F)F)c3F)ncnc12 [I-164],13 nM
2,Cc1nc(N[C@H](C)c2cccc3c2CCC3(F)F)c2cn(C34CCN(CC3)C4)c(=O)c(C)c2n1 [I-160],2 nM
3,Cc1nc(N[C@H](C)c2cccc(C(F)F)c2F)c2cn(C3(C)CC3)c(=O)c(C)c2n1 [I-155],5 nM
4,Cc1c(=O)n(C2(C)CC2)cc2c(N[C@H](C)c3cccc(C(C)(F)F)c3F)ncnc12 [I-174],9 nM
5,C[C@@H](Nc1ncnc2cc(=O)n(C3(C)CC3)cc12)c1cccc2c1CCC2=O [I-105],25 nM
6,Cc1c(=O)n(C2(CF)CC2)cc2c(N[C@H](C)c3cccc(C(C)(F)F)c3F)ncnc12 [I-175],13 nM
7,Cc1c(=O)n(C2CC23CC3)cc2c(N[C@H](C)c3cccc(C(F)F)c3F)ncnc12 (stereo partly drawn) [I-167],36 nM
8,Cc1c(=O)n(C2(CF)CC2)cc2c(N[C@H](C)c3cccc(C(F)F)c3F)ncnc12 [I-162],7 nM
9,C[C@@H](Nc1ncnc2cc(=O)n(C34CCC(CC3)C4)cc12)c1cccc2c1CCC2=O [I-109],6 nM
10,Cc1c(=O)n([C@H]2C[C@H](F)C2)cc2c(N[C@H](C)c3cccc(C(F)F)c3F)ncnc12 [I-168],9 nM
11,Cc1c(=O)n(C23CC(F)(C2)C3)cc2c(N[C@H](C)c3cccc(C(F)(F)C(C)(C)O)c3F)ncnc12 [I-178],5 nM

# Next, values leading:
row,IC50,Structure (SMILES)
1,39 nM,Cc1nc(N[C@H](C)c2cccc(C(F)(F)F)c2)c2cn(C3(C)CCCOC3)c(=O)cc2n1 (stereo partly drawn) [I-113]
2,25 nM,Cc1nc(N[C@H](C)c2cccc(C(F)(F)F)c2)c2cn(C(C)(C)C)c(=O)cc2n1 [I-110]
3,13 nM,Cc1nc(N[C@H](C)c2cccc(C(F)(F)F)c2)c2cn(C3(C)CCOCC3)c(=O)cc2n1 [I-112]
4,9 nM,Cc1nc(N[C@H](C)c2cccc(C(F)(F)F)c2)c2cn(C3(C)CCOC3)c(=O)cc2n1 (stereo partly drawn) [I-111]
5,26 nM,Cc1nc(N[C@H](C)c2cccc(C(F)(F)F)c2)c2cn(C3(C)CCN(C)CC3)c(=O)cc2n1 [I-114]
6,10 nM,Cc1nc(N[C@H](C)c2cccc(C(F)(F)F)c2)c2cn(C34CCC(CC3)C4)c(=O)cc2n1 [I-115]
7,20 nM,Cc1nc(N[C@H](C)c2cccc(C(F)F)c2F)c2cn([C@@]3(C(F)(F)F)CCOC3)c(=O)cc2n1 [I-118]
8,9 nM,Cc1nc(N[C@H](C)c2cccc(C(F)F)c2F)c2cn(C3(C(F)(F)F)CCOC3)c(=O)cc2n1 (stereo partly drawn) [I-117]
9,6 nM,Cc1nc(N[C@H](C)c2cccc(C(F)F)c2F)c2cn(C34CCC(CC3)CC4)c(=O)cc2n1 [I-120]

# Same assay, conditions: Table 20; KRAS::SOS1 AlphaScreen (SOS1 / KRAS G12D)
row,Structure (SMILES),IC50
1,C[C@@H](Nc1ncnc2cc(=O)n(C3(CF)CC3)cc12)c1cccc(C(F)F)c1F [I-63],7 nM
2,C[C@@H](Nc1ncnc2cc(=O)n(C3CC34CC4)cc12)c1cccc(C(F)F)c1F (stereo partly drawn) [I-66],15 nM
3,Cc1nc(N[C@H](C)c2cccc(C(F)(F)C(C)(C)O)c2F)c2cn(C34CC(F)(C3)C4)c(=O)c(F)c2n1 [I-91],4 nM
4,C[C@@H](Nc1ncnc2cc(=O)n(C3(CF)CC3)cc12)c1cccc(C(C)(F)F)c1F [I-77],6 nM
5,C[C@@H](Nc1ncnc2cc(=O)n(C3(C(F)F)CC3)cc12)c1cccc(C(F)F)c1F [I-64],8 nM
6,C[C@@H](Nc1ncnc2cc(=O)n(C3(C)CC3)cc12)c1cccc(C(F)F)c1F [I-62],7 nM
7,Cc1nc(N[C@H](C)c2cccc3c2CCC3(F)F)c2cn(C34CCN(CC3)C4)c(=O)cc2n1 [I-60],2 nM
8,Cc1nc(N[C@H](C)c2cccc(C(F)(F)[C@@H]3CCCO3)c2F)c2cn(C3(C(F)F)CC3)c(=O)c(F)c2n1 [I-95],5 nM
9,Cc1nc(N[C@H](C)c2cccc(C(F)(F)C3CCCO3)c2)c2cn(C3(C(F)F)CC3)c(=O)c(F)c2n1 (stereo partly drawn) [I-93],3 nM
10,Cc1nc(N[C@H](C)c2cccc(C(F)F)c2F)c2cn(C3(c4ccccc4)CC3)c(=O)cc2n1 [I-8],16 nM
11,Cc1nc(N[C@H](C)c2cccc(C(F)F)c2F)c2cn(C3(c4ccncc4)CC3)c(=O)cc2n1 [I-7],8 nM
12,Cc1nc(N[C@H](C)c2cccc(C(F)(F)C3CCCO3)c2)c2cn(C3(C)CC3)c(=O)c(F)c2n1 (stereo partly drawn) [I-92],4 nM
13,C[C@@H](Nc1ncnc2cc(=O)n(C3(C(F)(F)F)CCOC3)cc12)c1cccc(C(F)F)c1F (stereo partly drawn) [I-72],11 nM
14,Cc1nc(N[C@H](C)c2cccc(C(F)(F)[C@@H]3CCCO3)c2F)c2cn(C3(C)CC3)c(=O)c(F)c2n1 [I-94],5 nM
15,Cc1nc(N[C@H](C)c2cccc(C(F)F)c2F)c2cn(C3(C(F)F)CC3)c(=O)c(F)c2n1 [I-82],5 nM
16,Cc1nc(N[C@H](C)c2cccc(C(F)F)c2F)c2cn(C3(c4ccc(F)cc4)CC3)c(=O)cc2n1 [I-9],30 nM

# Further lines, results first:
row,IC50,Structure (SMILES)
1,30 nM,Cc1nc(N[C@H](C)c2cccc(CC(F)(F)F)c2)c2cn(C3(C(F)F)CC3)c(=O)cc2n1 [I-100]
2,5 nM,Cc1nc(N[C@H](C)c2cccc(C(F)(F)F)c2C)c2cn([C@H]3C[C@H](O)C3)c(=O)cc2n1 [I-43]
3,4 nM,Cc1nc(N[C@H](C)c2cccc(C(F)F)c2F)c2cn(C3(CF)CC3)c(=O)cc2n1 [I-2]
4,37 nM,Cc1nc(N[C@H](C)c2cccc(C(F)(F)F)c2)c2cn(C3CC3)c(=O)cc2n1 [I-26]
5,12 nM,CCC1(n2cc3c(N[C@H](C)c4cccc(C(F)F)c4F)nc(C)nc3cc2=O)CC1 [I-5]
6,6 nM,COCC1(n2cc3c(N[C@H](C)c4cccc(C(F)F)c4F)nc(C)nc3cc2=O)CC1 [I-6]
7,7 nM,Cc1nc(N[C@H](C)c2cccc(C(C)(F)F)c2)c2cn(C3(C(F)F)CC3)c(=O)cc2n1 [I-99]
8,39 nM,Cc1nc(N[C@H](C)c2cccc(C(F)(F)F)c2)c2cn(C3CCC(F)(F)CC3)c(=O)cc2n1 [I-30]
9,9 nM,Cc1nc(N[C@H](C)c2cccc(C(F)(F)F)c2C)c2cn(C3(C)CCC3)c(=O)cc2n1 [I-42]
10,27 nM,Cc1nc(N[C@H](C)c2cccc(C(F)(F)F)c2C)c2cn([C@H]3C[C@@](O)(C(F)(F)F)C3)c(=O)cc2n1 [I-48]
11,27 nM,Cc1nc(N[C@H](C)c2cccc(C(F)(F)F)c2)c2cn(C3CCCC3)c(=O)cc2n1 [I-28]
12,38 nM,Cc1nc(N[C@H](C)c2cccc(C(F)(F)F)c2F)c2cn([C@@H]3CCOC3)c(=O)cc2n1 [I-33]
13,11 nM,Cc1nc(N[C@H](C)c2cccc(C(F)(F)F)c2)c2cn(C3CCOCC3)c(=O)cc2n1 [I-31]
14,24 nM,Cc1nc(N[C@H](C)c2cccc(C(F)(F)F)c2)c2cn(C3CCCCC3)c(=O)cc2n1 [I-29]
15,7 nM,C[C@@H](Nc1ncnc2cc(=O)n(C3(C)CC3)cc12)c1cccc(C(C)(F)F)c1F [I-76]
16,10 nM,Cc1nc(N[C@H](C)c2cccc(C(F)F)c2C)c2cn(C34CCC(C(=O)N(C)C)(CC3)C4)c(=O)cc2n1 [I-24]
17,40 nM,Cc1nc(N[C@H](C)c2cccc(C(F)(F)F)c2F)c2cn(C3(c4ccccc4)CCOCC3)c(=O)cc2n1 [I-36]
18,9 nM,Cc1nc(N[C@H](C)c2cccc(C(F)(F)F)c2F)c2cn(C3CCOCC3)c(=O)cc2n1 [I-35]
19,5 nM,Cc1nc(N[C@H](C)c2cccc(C(F)F)c2F)c2cn(C3(C)CC3)c(=O)cc2n1 [I-1]
20,5 nM,Cc1nc(N[C@H](C)c2cccc(C(F)F)c2F)c2cn(C34CC(N5CCOCC5)(C3)C4)c(=O)cc2n1 [I-17]
21,5 nM,Cc1nc(N[C@H](C)c2cccc(C(F)F)c2F)c2cn(C3(C)CCC3)c(=O)cc2n1 [I-11]
22,13 nM,Cc1nc(N[C@H](C)c2cccc(C(C)(F)F)c2F)c2cn(C3(C(F)(F)F)CC3)c(=O)cc2n1 [I-55]
23,15 nM,Cc1nc(N[C@H](C)c2cccc(C(C)(F)F)c2F)c2cn(C34CC(F)(C3)C4)c(=O)cc2n1 [I-56]
24,5 nM,Cc1nc(N[C@H](C)c2cccc(C(F)F)c2F)c2cn(C3CCOCC3)c(=O)cc2n1 [I-18]
25,12 nM,Cc1nc(N[C@H](C)c2cccc(C(F)(F)F)c2F)c2cn([C@H]3[C@@H]4COC[C@@H]43)c(=O)cc2n1 [I-32]
26,12 nM,Cc1nc(N[C@H](C)c2cccc(C(F)(F)F)c2C)c2cn([C@H]3C[C@@H](O)C3)c(=O)cc2n1 [I-44]
27,8 nM,Cc1nc(N[C@H](C)c2cccc(C(F)F)c2F)c2cn(C34CC(C3)C4)c(=O)cc2n1 [I-15]
28,7 nM,Cc1nc(N[C@H](C)c2cccc(C(F)F)c2F)c2cn([C@H]3C[C@H](F)C3)c(=O)cc2n1 [I-12]
29,9 nM,Cc1nc(N[C@H](C)c2cccc(C(F)(F)F)c2C)c2cn([C@H]3[C@@H]4COC[C@@H]43)c(=O)cc2n1 [I-40]
30,31 nM,Cc1nc(N[C@H](C)c2cccc(C(F)(F)F)c2C)c2cn(C3(C)CC(F)(F)C3)c(=O)cc2n1 [I-46]
